Test results as given in patent US20130210846A1, “USE OF NOVEL PAN-CDK INHIBITORS FOR TREATING TUMORS” (BAYER INTELLECTUAL PROPERTY GMBH, priority 2010, published 2013).

Experiments:
[1] = test system: HeLa-MaTu-ADR multidrug-resistant human cervix carcinoma cells; assay: HeLa-MaTu-ADR Res. xenograft model; format: in vivo, female NMRI nude mice
Source text: (§1) Tumor cells grown in cell culture were implanted subcutaneously in the flank of female or male NMRI nude mice. The treatment was started as soon as the tumors had grown to a size of approx. 20 mm^2 The study was ended as soon as the tumors in one of the groups reached a size of approx. 150 mm^2.
(§2) Vehicle group: treatment with solubilizer (40% PEG400/60% water)
(§3) The studies were designed for determining the initial response of the human tumor model to the treatment with the Exemplary compound 2-SI-2. Tumor growth inhibition in percent (TGI) was either calculated at the end of the studies from the tumor weights (TGITW) using the formula 100×[1−(tumor weight of the treatment group/tumor weight of the vehicle group)], or on the day the vehicle group had to be ended from the tumor areas (TGITA) using the formula 100×[1−(tumor area of the treatment group on the day of the measurement−tumor area of the treatment group prior to treatment)/(tumor area of the vehicle group on the day of the measurement−tumor area of the vehicle group prior to treatment)]. In the case of a tumor growth inhibition of more than 50%, the treatment was considered to have been effective.
Efficacy in the HeLa-MaTu-ADR Res. xenograft model
HeLa-MaTu-ADR multidrug-resistant human cervix carcinoma cells implanted into female NMRI nude mice.
Formulation • a) 0.15 mg/ml, 0.20 mg/ml of Example 2-SI-2 in 40% (v/v) PEG 400 in water • b) 0.20 mg/ml, 0.25 mg/ml of Example 2-SI-2 in 40% (v/v) PEG 400 in water
• a) 1.5 and 2.0 mg/kg (4.5 and 6.0 mg/m^2), 1× per day • b) 2.0 and 2.5 mg/kg (6.0 and 7.5 mg/m^2), 2× per day on 2 successive days, followed by 5 treatment-free days

[2] = test system: NCI-H69 human small-cell lung tumor cells; assay: NCI-H69 human small-cell lung tumor model; format: in vivo, female NMRI nude mice
Source text: as §1, §2, §3
Efficacy in the NCI-H69 human small-cell lung tumor model.
NCI-H69 human small-cell lung tumor cells implanted into female NMRI nude mice. […]

[3] = test system: NCI-H146 human small-cell lung tumor cells; assay: NCI-H146 human small-cell lung tumor model; format: in vivo, female NMRI nude mice
Source text: as §1, §2, §3
Efficacy in the NCI-H146 human small-cell lung tumor model.
NCI-H146 human small-cell lung tumor cells implanted into female NMRI nude mice. […]

OVCAR-8 = assay: Proliferation assay OVCAR-8; format: cell-based; details: Homo sapiens, 96 h; OVCAR-8, ovarial carcinoma; 4 days, crystal violet
Experimental: (§4) Cultivated human tumor cells (originally obtained from ATCC, HeLa-MaTu and HeLa-MaTu-ADR, originally obtained from Epo GmbH, Berlin, Germany) were plated at a density of 1000 to 5000 cells/measuring point, depending on the growth rate of the cell line, in a 96-well multititer plate in 200 μl of growth medium (DMEM/HAMS F12, 2 mM L-glutamine, 10% fetal calf serum). After 24 hours the cells of one plate (zero-point plate) were stained with crystal violet (see below), whereas the medium of the other plates was replaced with fresh culture medium (200 μl), to which the test substances had been added at various concentrations (0 μM, and in the range 0.01-30 μM; the final concentration of the solvent dimethyl sulfoxide was 0.5%). The cells were incubated for 4 days in the presence of the test substances. Cellular proliferation was determined by staining the cells with crystal violet: the cells were fixed by adding 20 μl/measuring point of an 11% glutaraldehyde solution for 15 min at room temperature. […] The extinction was determined photometrically at a wavelength of 595 nm. The percentage change in cell growth was calculated by standardization of the measured values to the extinction values of the zero-point plate (=0%) and the extinction of the untreated (0 μM) cells (=100%). […] The IC50 values were determined by means of a 4-parameter fit using the company's own software. […]

MDA-MB 231 = assay: Proliferation assay MDA-MB 231; format: cell-based; details: Homo sapiens, 96 h; MDA-MB 231, estrogen receptor-negative mamma carcinoma; 4 days, crystal violet
Experimental: as §4

MOLM-13 = assay: Proliferation assay MOLM-13; format: cell-based; details: Homo sapiens, 96 h; MOLM-13, leukemia; 4 days, crystal violet
Experimental: as §4

[4] = HeLa-MaTu-ADR; b) 2.5 mg/kg oral 2× per day on 2 successive days, followed by 5 treatment-free days

Row | SMILES | TGITW (tumor growth inhibition from tumor weights) ([1]; HeLa-MaTu-ADR; a) 2.0 mg/kg oral 1× per day) [%] | TGITW (tumor growth inhibition from tumor weights) [1, 4] [%] | tumor regression observation [1, 4] | TGITA (tumor growth inhibition from tumor areas, measured on the day the vehicle group was ended) ([2]; NCI-H69; a) 2.0 mg/kg oral 1× per day) [%] | TGITA (tumor growth inhibition from tumor areas) ([2]; NCI-H69; b) 2.5 mg/kg oral 2× per day on 2 successive days, followed by 5 treatment-free days) [%] | TGITW (tumor growth inhibition from tumor weights) ([3]; NCI-H146; a) 2.0 mg/kg oral 1× per day) [%] | TGITW (tumor growth inhibition from tumor weights) ([3]; NCI-H146; b) 2.0 mg/kg oral 2× per day on 2 successive days, followed by 5 treatment-free days) [%] | IC50 (OVCAR-8) [nM] | IC50 (MDA-MB 231) [nM] | IC50 (MOLM-13) [nM]
1 | C[C@@H](O)[C@@H](C)Oc1nc(Nc2ccc(S(C)(=N)=O)cc2)ncc1C(F)(F)F (mixture of isomers) [Example 2-SI-2, (RS)—S-(4-{[4-{[(1R,2R)-2-Hydroxy-1-methylpropyl]oxy}-5-(trifluoromethyl)pyrimidin-2-yl]-amino}phenyl)-S-methylsulfoximide] | 97 | 90 | signs of tumor regression | 99 | 110 | 95 | 82 |  |  | 
2 | C[C@@H](O)[C@@H](C)Oc1nc(Nc2ccc(S(C)(=N)=O)cc2)ncc1C(F)(F)F (single isomer, unassigned) [Example 2-SI-2] |  |  |  |  |  |  |  | 14 | 16 | 9
